Test results from PubChem BioAssay AID1745844 (Carcinogenic Potency Database (CPDB), 2022).
Activity calls are given as the source filed them. No rule for the calls is given here.

Tested on: rodent lifetime carcinogenesis bioassay, tumor incidence TD50
Assay: carcinogenic potency in animals, long-term in vivo studies, CPDB compilation (AID 1745844)

O=CCBr
inactive: carcinogen call (mouse, strain B6C3F1, females, in drinking water, site: any site (literature study), lesion: several types, types named in the paper, dosed 80 weeks, study length 80 weeks) negative | TD50 (mouse, strain B6C3F1, females, in drinking water, site: forestomach, lesion: squamous-cell papilloma, dosed 80 weeks, study length 80 weeks) 2520 mg/kg/day | TD50 (mouse, strain B6C3F1, females, in drinking water, site: liver, lesion: hemangioma, dosed 80 weeks, study length 80 weeks) 1020 mg/kg/day | carcinogen call (mouse, strain B6C3F1, females, in drinking water, site: lung, lesion: one or several types, types not named, dosed 80 weeks, study length 80 weeks) negative | carcinogen call (mouse, strain B6C3F1, males, in drinking water, site: any site (literature study), lesion: several types, types named in the paper, dosed 78 weeks, study length 78 weeks) negative | TD50 (mouse, strain B6C3F1, males, in drinking water, site: forestomach, lesion: squamous-cell papilloma, dosed 78 weeks, study length 78 weeks) 1890 mg/kg/day | carcinogen call (mouse, strain B6C3F1, males, in drinking water, site: liver, lesion: one or several types, types not named, dosed 78 weeks, study length 78 weeks) negative | carcinogen call (mouse, strain B6C3F1, males, in drinking water, site: lung, lesion: papillary tumor, dosed 78 weeks, study length 78 weeks) negative

C[C@H](CCc1ccccc1)NC[C@H](O)c1ccc(O)c(C(N)=O)c1
inactive: carcinogen call (rat, strain Sprague-Dawley, females, in feed, site: heart, lesion: endocardial sarcoma, dosed 104 weeks, study length 104 weeks) negative | carcinogen call (rat, strain Sprague-Dawley, males, in feed, site: heart, lesion: endocardial sarcoma, dosed 104 weeks, study length 104 weeks) negative
